US7498343B2, “Mycobacterial inhibitors” (priority 2002, dated 2009)
≈ marks a conversion by molar mass, not a printed value. Where two headings read alike, the source gives them in different places.

What was measured:
[1] = test system: Mycobacterium tuberculosis (strain H37RV); test: In-vitro method for testing compounds against M. tuberculosis (resazurin growth inhibition, MIC); type: cell-based; settings: MIC data representing IC90's, 7 days incubation, resazurin fluorescence
[2] = test system: M. Smegmatis ATCC607; test: In-vitro method for testing compounds for anti-bacterial activity against strain M. smegmatis ATCC607 (Alamar Blue growth inhibition); type: cell-based; settings: M. smegmatis ATCC607, pIC50 = -logIC50, IC50 in M, 50% inhibitory concentration for bacterial growth, 48 hours incubation; for IC50: Mycolicibacterium smegmatis, ATCC607, 48 h, read-out: pIC50 (converted)
Summary of the method: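 About 250 CFU/well M. smegmatis ATCC607 in Mueller-Hinton broth exposed to five-fold serial compound dilutions, 48 h at 37 °C, humidified 5% CO2. Growth read by Alamar Blue fluorescence (ex 530/em 590 nm) after 2 h further incubation; % growth inhibition calculated.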

[3] = Mycobacterium tuberculosis, H37RV, 168 h, read-out: MIC

For `COc1nc2ccc(Br)cc2cc1C(c1ccccc1)C(O)(CC[N+](C)(C)[O-])c1cccc2ccccc12` (stereo not drawn) [Compound 99], the MIC [1, 3] was 9.06 µg/mL (≈ 15.9 µM), the IC50 [2] was 12.6 nM and the melting point was 218 °C.
`COc1nc2ccc(Br)cc2cc1C(c1ccccc1)C(O)(CC[N+](C)(C)C)c1ccccc1.[I-]` (stereo not drawn) [Compound 10] gave an MIC [1, 3] of 10.3 µg/mL, an IC50 [2] of 2510 nM and a melting point of 198 °C.
With `COc1nc2ccc(Br)cc2cc1C(c1ccccc1)C(O)(CCN)c1ccccc1` (stereo not drawn) [Compound 9] the MIC [1] was 37.92 microgram/ml, the pIC50 [2] was 4.5 and the melting point was 204 °C.
Work on `CN(C)CCC(O)(c1ccccc1)C(c1ccccc1)c1cnc2ccc(Br)cc2c1` (stereo not drawn) [Compound 8] yielded an MIC [1, 3] of 23.8 µg/mL (≈ 50.1 µM), a pIC50 [2] of 5.7 and a melting point of 180 °C.
With `CN(C)CCC(O)(c1ccccc1)C(c1ccccc1)c1cnc2ccc(Br)cc2c1` (stereo not drawn) [Compound 7] the MIC [1] was 47.54 microgram/ml, the pIC50 [2] was 4.6 and the melting point was 98 °C.
Work on `COc1nc2ccc(Br)cc2cc1C(c1ccc(C)cc1)C(O)(CCN(C)C)c1cccc2ccccc12` (stereo not drawn) [Compound 72] yielded an MIC [1] of 3.59 microgram/ml, a pIC50 [2] of 6.9 and a melting point of 178 °C.
Work on `CCOc1nc2ccc(Br)cc2cc1C(c1ccccc1)C(O)(CCN(C)C)c1ccccc1` (stereo not drawn) [Compound 5] yielded an MIC [1] of 0.33 microgram/ml, a pIC50 [2] of 7.8 and a melting point of 162 °C.
In the case of `COc1nc2ccc(Br)cc2cc1C(c1ccc(C)cc1)C(O)(CCN(C)C)c1cccc2ccccc12` (stereo not drawn) [Compound 71], the MIC [1] is reported as 0.14 microgram/ml, the pIC50 [2] is reported as 8.5 and the melting point is reported as 174 °C.
In the case of `COc1nc2ccc(Br)cc2cc1C(c1ccccc1)C(O)(CCN(C)C)c1cccc(F)c1F` (stereo not drawn) [Compound 113], the MIC [1] is reported as 0.27 microgram/ml, the pIC50 [2] is reported as 8.6 and the melting point is reported as 185 °C.
In the case of `COc1nc2ccc(Br)cc2cc1C(c1ccccc1)C(O)(CC[N+](C)(C)[O-])c1ccccc1` (stereo not drawn) [Compound 11], the MIC [1, 3] is reported as 41.4 µg/mL (≈ 79.4 µM), the IC50 [2] is reported as 25100 nM and the melting point is reported as 208 °C.
With `CN(C)CCC(O)(c1ccccc1)C(c1ccccc1)c1cc2cc(Br)ccc2n(C)c1=O` (single isomer, unassigned) [Compound 106] the MIC [1] was 55.55 microgram/ml and the pIC50 [2] was 6.2.
Work on `COc1nc2ccc(Br)cc2cc1C(c1ccccc1)C(O)(CCN(C)C)c1ccc(Cl)cc1` (single isomer, unassigned) [Compound 17] yielded an MIC [1] of 1.71 microgram/ml and a pIC50 [2] of 6.5.
`COc1nc2ccc(Br)cc2cc1C(c1ccccc1)C(O)(CCN(C)C)c1cccc(F)c1F` (stereo not drawn) [Compound 114] showed an MIC [1] of 43.01 microgram/ml, a pIC50 [2] of 5.9 and a melting point of 210 °C.
For `COc1nc2ccc(Br)cc2cc1C(c1ccccc1)C(O)(CCn1cncn1)c1cccc2ccccc12` (stereo not drawn) [Compound 172], the MIC [1, 3] was 7.3 µg/mL (≈ 12.6 µM) and the IC50 [2] was 2000 nM.
